Values quoted from earlier work in patent publication US20230279502A1, “IDENTIFICATION OF ESTROGEN RECEPTOR POSITIVE (ER+) BREAST CANCERS THAT WILL NOT DEVELOP TAMOXIFEN RESISTANCE” (Rutgers, The State University of New Jersey, priority 2020, published 2023).

Assays:
human cancer cell lines = conditions: different human cancer cell lines, based on expression levels of the read-out genes; high AUCs = decreased sensitivity
ER+ breast cancers = conditions: ER+ breast cancer patients treated with tamoxifen

In the case of `CC/C(=C(\c1ccccc1)c1ccc(OCCN(C)C)cc1)c1ccccc1` [tamoxifen], the “Sensitivity to tamoxifen treatment (area under the dose-response curve)” value (human cancer cell lines) is listed as “decreased sensitivity” and the “Treated patients that develop therapeutic resistance” value (ER+ breast cancers) is listed as ~30%.
